Results: patent US20050027016A1, “Polyamine compounds and compositions for use in conjection with cancer therapy” (priority 2002, published 2005)
Like-named read-outs stand apart in the source and are kept apart here.

Experiments:
[1] = test system: Cytoxan-induced alopecia in the rat model; assay type: in vivo; settings: rat pups, 35 ug/gm i.p., approximately 7 days after challenge
Source text: FIGS. 6A-6E illustrate the efficacy of each of the indicated chemoprotective polyamines in protecting against Cytoxan-induced alopecia in the rat model Hussein et al., 1990, infra). In this protocol (See Example 2), chemoprotective polyamines are applied topically to the rat pups' backs in an alcohol:water delivery vehicle, once per day, for five days before and five days after a single systemic dose of Cytoxan.
The efficacy of […] polyamines in reducing or preventing chemotherapy-induced alopecia in a rat model was examined. This animal model mimics many of the features found in chemotherapy-induced alopecia seen in humans and is considered a clinically relevant model for testing novel therapeutics.
Induction of alopecia by cytoxan (CTX). Lactating Sprague Dawley mother rats with rat pups were purchased from Harlan Sprague Dawley (Indianapolis, Ind.). The mother rats were given food and water ad libitum. The rats pups were tested in the model of chemotherapy-induced alopecia described by Hussein A. M. et al., Science: 249, 1564 (1990). Cytoxan (CTX), a chemotherapeutic widely used in the treatment of cancer, was used to induce alopecia in the rats. […]
Approximately 7 to 10 days after CTX treatment, the pups were evaluated for alopecia Hair loss was evaluated using a modified alopecia-scoring index described by Chen G. et al., Int. […]

23SK skin cells = assay: Cell cycle distribution by flow cytometry in 23SK skin cells; assay type: cell-based, human; settings: for Cell Cycle Distribution At IC80 Dose: G1 / Cell Cycle Distribution At IC80 Dose: G2/M / Cell Cycle Distribution At IC80 Dose: S: 23SK cells
Source text: FIGS. 5A-5D are cell histograms showing the results from flow cytometry analysis of chemoprotective polyamine-treated 23SK skin cells.
In FIG. 5, cell histograms showing the results from flow cytometry analysis of chemoprotective polyamine-treated 23SK skin cells are shown. […] The transient nature of the cell cycle block induced by chemoprotective polyamines is believed to be an important aspect of their efficacy, i.e., their ability to block cell cycle progression in stem cells during the course of chemo- or radiotherapy, and the resumption of normal stem cell division after a given cancer therapy course has been completed.

helical B-DNA = assay: DNA binding/denaturation/precipitation from solution
Source text: The chemoprotective polyamines of the invention are also able to bind, denature and precipitate DNA from solution As is known in the field, as the concentration of polyamine is increased, there is a point where polyamine binding to helical B-DNA induces single-stranded ‘bubbles’ and conversion to other forms of DNA structure, such as 2-DNA (Feuerstein, B. et al. Nuc. Acids Res. 17:6883-6892, 1989; Basu, H. and Marton, L. Biochem. J. 244:243-246, 1987), as well as precipitating the DNA from solution.
This relationship between arm length of the chemoprotective polyamine and increased ability to disrupt and denature B-DNA structure is also a unique aspect of this invention. The increased ability to bind DNA and disrupt its helical structure may also contribute to the molecule's ability to protect cellular DNA against electrophilic chemotherapy drug metabolites and against oxygen free radicals generated during radiotherapy. Both of these toxic modalities are believed to require normal B-DNA helical structure within the cell's nuclear DNA in order to achieve chemical or physical disruption of the cellular DNA, the first step in the apoptotic cascade.

[2] = test system: primary, diploid fibroblasts isolated from human skin; assay: In vitro growth inhibition of primary diploid human skin fibroblasts; assay type: cell-based
Description: FIG. 2 illustrates the relationship between the number of aliphatic carbon atoms in each chemoprotective polyamine side chain (‘arm’) and the respective IC50 dose for inhibition of human fibroblast growth.
The in vitro growth inhibitory effects of certain of the chemoprotective polyamines of the invention were measured using primary, diploid fibroblasts isolated from human skin.

p21 = p21 induction in 23SK human skin cells by western analysis; assay type: cell-based; settings: 30 hr exposure
Description: FIGS. 3A and 3B illustrate the level of induced p21 protein seen in diploid human fibroblasts after a 30 hr exposure to each of the indicated chemoprotective polyamines. […] In these experiments, the 23SK human skin cells were exposed for 30 hr to an “ICso” dose of each of the indicated chemoprotective polyamines and then lysed. Cell extracts were then prepared in order to measure p21 levels by western analysis (FIG. 3A).
FIG. 3 illustrates that chemoprotective polyamines are able to induce expression of the negative cell cycle regulatory protein, p21, after exposing the human skin cells to the polyamine molecules. […] In these experiments, the 23SK human skin cells were exposed for 30 hr to an “IC80” dose of each of the indicated chemoprotective polyamines and then lysed. Cell extracts were then prepared in order to measure p21 levels by western analysis (FIG. 3A). Although the ability of modified polyamines to induce p21 is known in the literature (Kramer, D. et al., Cancer Res. 59:1278-1286, 1999), it is a novel aspect of this invention that those chemoprotective polyamines with longer aliphatic “arms” were better able to induce expression of p21 as shown in FIG. 4.

[3] = Expt. 1 (first or only value in cell), read-out: DNA Bind/ppt. IC50, Expt. 1
[4] = Expt. 1, read-out: IC50 (drug concentration that caused a 50% inhibition of cell growth), Expt. 1
[5] = Expt. 2, read-out: IC50 (drug concentration that caused a 50% inhibition of cell growth), Expt. 2
[6] = Expt. 2 (second value in cell), read-out: DNA Bind/ppt. IC50, Expt. 2
[7] = 23SK cells treated for 72 hr (FIG. 5C)

| SMILES | hair loss induced [1] [%] | Cell Cycle Distribution At IC80 Dose: G1 (23SK skin cells) [%] | Cell Cycle Distribution At IC80 Dose: G2/M (23SK skin cells) [%] | Cell Cycle Distribution At IC80 Dose: S (23SK skin cells) [%] | IC50 (helical B-DNA; [3]) [µM] | IC50 [2, 4] [µM] | IC50 [2, 5] [µM] | IC50 (helical B-DNA; [6]) [µM] | p21 fold-induction at IC80 Dose (p21) | cells in G1 compartment (23SK skin cells; [7]) [%] | cells in S+G2 compartments (23SK skin cells; [7]) [%] | distribution within cell cycle compartments after drug removal (23SK skin cells; 72 hr treatment, then 48 hr in medium devoid of compound (FIG. 5D)) |
| --- | --- | --- | --- | --- | --- | --- | --- | --- | --- | --- | --- | --- |
| O=P1(N(CCCl)CCCl)NCCCO1 (stereo not drawn) [CTX, cyclophosphamide(cytoxan)] | 100 | – | – | – | – | – | – | – | – | – | – | – |
| CN[C@H]1CCc2cc(OC)c(OC)c(OC)c2-c2ccc(OC)c(=O)cc21 [Colcemid, reference compound] | – | 8 | 81 | 11 | – | – | – | – | – | – | – | – |
| CCNCCCCNCC=C(CNCC)CNCCCCNCC [PrC-110] | – | 60 | 14 | 26 | – | – | – | – | – | – | – | – |
| CCNCCCCNCCCCNCC=C(CNCC)CNCCCCNCCCCNCC [PrC-111] | – | 60 | 14 | 25 | – | – | – | – | – | – | – | – |
| CCNCCCCNCCCCNCCCCNCC=C(CNCC)CNCCCCNCCCCNCCCCNCC [PrC-112] | – | 61 | 16 | 23 | – | – | – | – | – | – | – | – |
| CCNCCCCNCCCCNCCCCNCCCCNCC=C(CNCC)CNCCCCNCCCCNCCCCNCCCCNCC [PrC-113] | – | 77 | 14 | 8 | – | – | – | – | – | – | – | – |
| CCNCCCCNCC=C(CS)CNCCCCNCC [PrC-114] | – | – | – | – | 94 | 850 | 240 | – | – | – | – | – |
| CCNCCCCNCCCCNCC=C(CS)CNCCCCNCCCCNCC [PrC-115] | – | – | – | – | 37 | 4100 | 1090 | 83 | – | – | – | – |
| CCNCCCCNCCCCNCCCCNCC=C(CS)CNCCCCNCCCCNCCCCNCC [PrC-116] | – | 66 | 23 | 11 | 82 | 5.8 | – | 63 | 2.32 fold | – | – | – |
| CCNCCCCNCCCCNCCCCNCCCCNCC=C(CS)CNCCCCNCCCCNCCCCNCCCCNCC [PrC-117] | – | 86 | 3 | 11 | 58 | 0.32 | 0.24 | 57 | ˜3.0 fold | 86.23 | 13.77 | basically returned to that seen in cells previously untreated with chemoprotective polyamine |
| CCNCCCCNCCCCNCCCCNCCCCNCC=C(CNC)CNCCCCNCCCCNCCCCNCCCCNCC [PrC-120] | – | – | – | – | 57 | 0.22 | 0.18 | – | 2.01 fold | – | – | – |
| CCNCCCCNCCCCNCCCCNCCCCNCC=C(CNCCCCNCCCCNCCCCNCCCCNCC)CN(C)C [PrC-121] | – | 76 | 20 | 4 | 49 | 0.15 | – | – | 3.26 fold | – | – | – |
